{"source": "patent US20020042437A1", "about": "(priority 1997, published 2002)", "test_system": "Phytophthora infestans", "assay_type": "in vivo", "conditions": "single active ingredient, tomato leaves, infected next day, evaluated after 6 days", "note": "Read-outs that look alike come from different tables or passages of the source.", "data": [{"smiles": "CCC(C)(NC(=O)c1cc(Cl)c(C)c(Cl)c1)C(=O)CCl", "note": "(stereo not drawn) [Compound II.1]", "values": [{"measurement": "Efficacy in % of the untreated control", "setting": "0.25 ppm in the spray liquor", "value": 0, "unit": "%"}, {"measurement": "Efficacy in % of the untreated control", "setting": "0.5 ppm in the spray liquor", "value": 20, "unit": "%"}]}, {"smiles": "CO/N=C(/C(=O)OC)c1ccccc1COc1ccccc1C", "note": "[Ia]", "values": [{"measurement": "Efficacy in % of the untreated control", "setting": "0.25 ppm in the spray liquor", "value": 0, "unit": "%"}, {"measurement": "Efficacy in % of the untreated control", "setting": "0.5 ppm in the spray liquor", "value": 0, "unit": "%"}, {"measurement": "Efficacy in % of the untreated control", "setting": "1 ppm in the spray liquor", "value": 0, "unit": "%"}]}, {"smiles": "CNC(=O)/C(=N/OC)c1ccccc1COc1cc(C)ccc1C", "note": "[Ib]", "values": [{"measurement": "Efficacy in % of the untreated control", "setting": "0.25 ppm in the spray liquor", "value": 0, "unit": "%"}]}]}
